Here are results for seven compounds from PMC6317804, “The integration of pharmacophore-based 3D QSAR modeling and virtual screening in safety profiling: A case study to identify antagonistic activities against adenosine receptor, A2A, using 1,897 known drugs” (PLoS ONE, 2019).

For assay [1], the system named is A2A. The conditions noted are these: cited from earlier work.
In assay [2] the target is T1, adenosine receptor 2A (A2A) (Homo sapiens, UniProt P29274).
T1 construct: CEREP (Poitiers, France), paid service
Nature of the assay: Competition binding assay using radioactive ligands (CEREP).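 Also: compounds screened at a single fixed 10 µM concentration for displacement of a radioligand.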 As to conditions: fixed compound concentration of 10 μM.
Method: (§1) Competition binding assay using radioactive ligands and functional assay monitoring cAMP were carried out as a paid service provided by CEREP (Poitiers, France). The functional assays monitoring Ca^2+ flux were carried out as a paid service provided by DiscoveRx (Carlsbad, CA).

Assay [3] concerns the target T1, adenosine receptor 2A (A2A). In words: Functional assay monitoring Ca2+ flux (DiscoveRx). The class given is cell-based. The conditions noted are these: for inhibition: read-out: IC50, Ca2+, M. Background: A change in cytosolic calcium serves as a functional read-out for many receptors and channels.
Method: as §1
Assay [4] shares this target. Nature of the assay: Functional antagonist assay monitoring cAMP (CEREP).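 Also: eight-point concentration-response from 0 to 10 µM.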 The class given is cell-based. As to conditions: concentration-response up to 10 μM; read-out: IC50, cAMP.
Method: as §1

Several values for one entry are separate records, joined by “and”; a condition that tells them apart may be missing. Equal entries are not always repeated. Where only a bound is given, the exact number is not on record here.

T1 sequence (P29274 whole entry): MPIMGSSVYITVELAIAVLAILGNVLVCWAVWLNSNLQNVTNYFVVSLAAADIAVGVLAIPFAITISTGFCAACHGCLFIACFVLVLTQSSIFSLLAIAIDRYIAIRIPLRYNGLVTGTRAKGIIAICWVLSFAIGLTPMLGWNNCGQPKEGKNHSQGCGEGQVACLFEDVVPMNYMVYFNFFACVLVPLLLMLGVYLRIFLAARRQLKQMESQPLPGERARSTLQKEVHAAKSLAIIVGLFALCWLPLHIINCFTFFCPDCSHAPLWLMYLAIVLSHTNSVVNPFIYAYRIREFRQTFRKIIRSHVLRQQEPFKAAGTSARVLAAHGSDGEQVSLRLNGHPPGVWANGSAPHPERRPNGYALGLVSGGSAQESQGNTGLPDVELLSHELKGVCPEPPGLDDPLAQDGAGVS

Regarding `O=C(/C=C/c1c(-c2ccccc2)nn2ccccc12)N1CCCC[C@@H]1CCO` [FK453], in assay [1], the IC50 (as a rule, the concentration at which inhibition is half-maximal) is 1.58 µM.
For the compound `Cn1c(=O)c2c(ncn2CC(O)CO)n(C)c1=O` (centres unmarked) [dyphylline], the IC50 in assay [1] is around 10 µM.
As for `CCOC(=O)C1=C(C)NC(c2ccccc2)=C(C(=O)OCc2ccccc2)C1C#Cc1ccccc1` (centres unmarked) [MRS1191], the 50% inhibitory concentration (IC50) in assay [1] is ~10 µM and 10 µM.
Regarding `CC(=O)CCCCn1c(=O)c2c(ncn2C)n(C)c1=O` [Pentoxifylline], the inhibition at 10 µM in assay [2] is below 50%. Moreover, the IC50 in assay [1] is around 10 µM. Moreover, the inhibition in assay [3] was below 50%. Also, the inhibition at up to 10 µM in assay [4] is below 50%.
Take `c1ccc(-c2cc(-c3ccccc3)c3nc(C4CCCCC4)[nH]c3n2)cc1` [LUF5981]: the IC50 in assay [1] was 0.2 µM.
Turning to `CO[C@@]1(NC(=O)Cc2cccs2)C(=O)N2C(C(=O)O)=C(COC(N)=O)CS[C@@H]21` [Cefoxitin], the inhibition at 10 µM in assay [2] was below 50%. In assay [3], the inhibition is below 50%. In addition, the inhibition at up to 10 µM in assay [4] was below 50%.
In the case of `Nc1ccc(O)c(C(=O)O)c1` [Mesalazine], the inhibition at 10 µM in assay [2] was below 50%. Further, the inhibition at up to 10 µM in assay [3] (concentration-response up to 10 μM, read-out: IC50, Ca2+) is below 50%; in assay [4] it was below 50%.
